Active and inactive are the calls of the source. No rule for the calls is given here.

The nature of assay [1]: Binding affinity to amyloid beta (1 to 42) oligomers by change in fluorescence at 100 uM after 10 mins.
The nature of assay [2]: Binding affinity to amyloid beta (1 to 42) fibrils by change in fluorescence at 100 uM after 10 mins.

As to `COc1ccc(C(=O)c2cc(OC)cc(OC)c2)cc1`, the outcome in assay [1] and in assay [2] was inactive.

`COc1ccc(C=O)cc1`: the result in assay [1] and in assay [2] was inactive.

As for `O=C1C=Cc2ccccc2C1=O`, the result in assay [1] and in assay [2] was Active.

With `O=C1C(Cl)=C(Cl)C(=O)C(Cl)=C1Cl`, the outcome in assay [1] and in assay [2] was inactive.

On to `CNc1ccc2nc3ccc(N)cc3[s+]c2c1`, for which the result in assay [1] and in assay [2] was inactive.

For the molecule `O=C(/C=C/c1ccccc1)c1ccccc1`, the outcome in assay [1] and in assay [2] was inactive.

Regarding `COc1cc(/C=C/C(=O)CC(=O)/C=C/c2ccc(O)c(OC)c2)ccc1O`, the result in assay [1] and in assay [2] was inactive.

Consider `O=Cc1c[nH]c2ccccc12`, for which the outcome in assay [1] and in assay [2] was inactive.

Take `O=C(/C=C/c1ccc(O)c(O)c1)O[C@H](Cc1ccc(O)c(O)c1)C(=O)O`: the outcome in assay [1] and in assay [2] was inactive.

Regarding `Nc1c(/N=N/c2ccc(-c3ccc(/N=N/c4cc(S(=O)(=O)O)c5ccccc5c4N)cc3)cc2)cc(S(=O)(=O)O)c2ccccc12`, the outcome in assay [1] and in assay [2] was Active.

Take `Oc1cc(O)c2c(c1)O[C@H](c1ccc(O)c(O)c1)[C@@H](O)C2`: the result in assay [1] and in assay [2] was inactive.

For the molecule `CN(C)c1ccc(N=Nc2ccccc2C(=O)O)cc1`, the outcome in assay [1] and in assay [2] was inactive.

With `O=c1cc(-c2ccc(O)cc2)oc2cc(O)cc(O)c12`, the outcome in assay [1] and in assay [2] was inactive.

Regarding `COc1cc(/C=C/C(=O)NCCCCNC(=O)/C=C/c2ccc(O)c(OC)c2)ccc1O`, the outcome in assay [1] and in assay [2] was inactive.

Regarding `C=C1c2c(Cl)ccc(O)c2C(=O)C2=C(O)[C@]3(O)C(=O)C(C(N)=O)=C(O)[C@@H](N(C)C)[C@@H]3[C@@H](O)[C@H]12.O=C(O)c1cc(S(=O)(=O)O)ccc1O`, the result in assay [1] and in assay [2] was Active.

On to `O=S(=O)(O)c1cc(S(=O)(=O)O)c2c(/N=N/c3ccccc3)c(O)ccc2c1`, for which the result in assay [1] and in assay [2] was inactive.

As to `O=C(c1ccccc1)c1ccccc1`, the result in assay [1] and in assay [2] was inactive.

As for `CCN(CC)c1ccc2c(-c3ccccc3C(C)=O)c3ccc(=[N+](CC)CC)cc-3oc2c1`, the result in assay [1] and in assay [2] was Active.

Regarding `COc1ccc2c(c1)c(CC(=O)O)c(C)n2C(=O)c1ccc(Cl)cc1`, the outcome in assay [1] and in assay [2] was inactive.

As to `CN(C)c1ccc(O)c2c1C[C@H]1C[C@H]3[C@H](N(C)C)C(O)=C(C(N)=O)C(=O)[C@@]3(O)C(O)=C1C2=O`, the outcome in assay [1] and in assay [2] was inactive.

Turning to `O=C1C=CC(=O)c2c(O)cccc21`, the result in assay [1] and in assay [2] was inactive.

`O=c1oc2c(O)c(O)cc3c(=O)oc4c(O)c(O)cc1c4c23`: the result in assay [1] and in assay [2] was inactive.

In the case of `O=C(c1ccc(O)cc1)c1ccc(O)cc1`, the result in assay [1] and in assay [2] was inactive.

For `O=C(c1ccccc1)c1ccc(O)c(O)c1O`, the outcome in assay [1] and in assay [2] was inactive.

For the molecule `COc1cc(/C=C/C(=O)NCCNC(=O)/C=C/c2ccc(O)c(OC)c2)ccc1O`, the outcome in assay [1] and in assay [2] was inactive.

On to `COc1cc(/C=C/C(=O)c2cccc(N)c2)ccc1O`, for which the outcome in assay [1] and in assay [2] was inactive.

On to `CN(C)c1ccc2nc3ccc(N)cc3[s+]c2c1`, for which the result in assay [1] and in assay [2] was inactive.

Consider `Nc1c2ccccc2nc2ccccc12`, for which the result in assay [1] and in assay [2] was Active.

As for `CN(C)[C@@H]1C(O)=C(C(=O)NCN2CCCC2)C(=O)[C@@]2(O)C(O)=C3C(=O)c4c(O)cccc4[C@@](C)(O)[C@H]3C[C@@H]12`, the result in assay [1] and in assay [2] was inactive.

`O=C1c2ccccc2Cc2ccccc21`: the result in assay [1] and in assay [2] was inactive.

Regarding `CC(C)OC(=O)C(C)(C)Oc1ccc(C(=O)c2ccc(Cl)cc2)cc1`, the result in assay [1] and in assay [2] was inactive.

`COc1ccc(/C=C/C(=O)c2ccccc2)cc1`: the outcome in assay [1] and in assay [2] was inactive.

On to `NCCc1c[nH]c2ccccc12`, for which the outcome in assay [1] and in assay [2] was Active.

For the molecule `Nc1ccc2nc3ccc(N)cc3[s+]c2c1`, the result in assay [1] and in assay [2] was inactive.

Regarding `COc1ccc(/C=C/C(=O)c2ccccc2)cc1OC`, the outcome in assay [1] and in assay [2] was inactive.

With `CC(Cc1ccc(O)c(O)c1)C(C)Cc1ccc(O)c(O)c1` (configuration not stated), the result in assay [1] and in assay [2] was inactive.

Turning to `O=S1(=O)OC(c2ccc(O)cc2)(c2ccc(O)cc2)c2ccccc21`, the outcome in assay [1] and in assay [2] was inactive.

In the case of `COc1ccc(/C=C/C(=O)c2cccc(N)c2)cc1OC`, the outcome in assay [1] and in assay [2] was inactive.

On to `O=C(O)/C=C/c1cccc(O)c1`, for which the outcome in assay [1] and in assay [2] was inactive.

`COc1cc(/C=C/C(=O)c2ccccc2)ccc1O`: the outcome in assay [1] and in assay [2] was inactive.

Consider `Nc1ccc(/N=N/c2ccc(-c3ccc(/N=N/c4c(S(=O)(=O)O)cc5cc(S(=O)(=O)O)c(/N=N/c6ccccc6)c(O)c5c4N)cc3)cc2)c(N)c1`, for which the result in assay [1] and in assay [2] was inactive.

Take `CN(C)c1ccc(N=Nc2ccc(S(=O)(=O)O)cc2)cc1`: the result in assay [1] and in assay [2] was inactive.

As for `O=c1cc2oc3cc(O)c(-c4ccc(O)cc4O)cc3nc-2cc1-c1ccc(O)cc1O`, the outcome in assay [1] and in assay [2] was inactive.

Turning to `COc1ccc(C=O)cc1OC`, the result in assay [1] and in assay [2] was inactive.

In the case of `O=Cc1cccc(O)c1`, the outcome in assay [1] and in assay [2] was inactive.

For the molecule `OCCN1CCN(CCCN2c3ccccc3Sc3ccc(Cl)cc32)CC1`, the result in assay [1] and in assay [2] was inactive.

`CN(C)[C@@H]1C(O)=C(C(N)=O)C(=O)[C@@]2(O)C(O)=C3C(=O)c4c(O)cccc4[C@@](C)(O)[C@H]3C[C@@H]12`: the result in assay [1] and in assay [2] was inactive.

Consider `O=C(/C=C/c1cccc(O)c1)c1ccccc1`, for which the result in assay [1] and in assay [2] was inactive.

Turning to `O=C1c2c(O)cc(O)cc2O[C@H](c2ccc(O)c(O)c2)[C@H]1O`, the outcome in assay [1] and in assay [2] was inactive.

Take `CN(C)c1ccc2nc3ccc(=[N+](C)C)cc-3sc2c1`: the result in assay [1] and in assay [2] was inactive.

As to `Oc1ccc(/C=C/c2cc(O)cc(O)c2)cc1`, the outcome in assay [1] and in assay [2] was Active.

As for `O=C(c1ccccc1O)c1ccccc1O`, the result in assay [1] and in assay [2] was inactive.

For the molecule `NCCc1ccc(O)c(O)c1`, the result in assay [1] and in assay [2] was inactive.

On to `Oc1ccc(Cc2ccc(O)cc2)cc1`, for which the outcome in assay [1] and in assay [2] was inactive.

For the molecule `COc1cc(/C=C/C(=O)NCCCCCCCCNC(=O)/C=C/c2ccc(O)c(OC)c2)ccc1O`, the result in assay [1] and in assay [2] was inactive.

Regarding `O=c1c(O)c(-c2ccc(O)c(O)c2)oc2cc(O)cc(O)c12`, the result in assay [1] and in assay [2] was inactive.

Regarding `O=C(O)c1ccccc1O`, the outcome in assay [1] and in assay [2] was Active.

`COc1ccc(/C=C/c2cc(OC)cc(OC)c2)cc1`: the result in assay [1] and in assay [2] was inactive.

Regarding `Oc1cc(O)c2c(c1)O[C@H](c1ccc(O)c(O)c1)[C@H](O)C2`, the result in assay [1] and in assay [2] was inactive.

On to `O=c1c(-c2ccc(O)cc2)coc2cc(O)cc(O)c12`, for which the outcome in assay [1] and in assay [2] was inactive.

On to `COc1ccc(/C=C/c2cccc(/C=C/c3ccc(OC)c(OC)c3)c2)cc1OC`, for which the outcome in assay [1] and in assay [2] was Active.

On to `O=C(O[C@@H]1Cc2c(O)cc(O)cc2O[C@@H]1c1cc(O)c(O)c(O)c1)c1cc(O)c(O)c(O)c1`, for which the result in assay [1] and in assay [2] was inactive.

`COc1cc(-c2ccc(/N=N/c3ccc4c(S(=O)(=O)O)cc(S(=O)(=O)O)c(N)c4c3O)c(OC)c2)ccc1/N=N/c1ccc2c(S(=O)(=O)O)cc(S(=O)(=O)O)c(N)c2c1O`: the result in assay [1] and in assay [2] was inactive.

As to `COc1cc(/C=C/C(=O)O)ccc1O`, the result in assay [1] and in assay [2] was Active.

With `COc1cccc(C=O)c1O`, the result in assay [1] and in assay [2] was inactive.

In the case of `O=C1C[C@@H](c2ccc(O)cc2)Oc2cc(O)cc(O)c21`, the outcome in assay [1] and in assay [2] was inactive.

The values above are taken from ChEMBL document CHEMBL1156243.
